Measured values published in ChEMBL document CHEMBL6109153, “Development of Membrane-Targeting Osthole Derivatives Containing Pyridinium Quaternary Ammonium Moieties with Potent Anti-Methicillin-Resistant Staphylococcus aureus Properties” (J Med Chem, 2025).
Converted amounts (≈) assume the structure as drawn.

Columns and labels:
Staphylococcus aureus [1] = experiment: Antibacterial activity against Staphylococcus aureus ATCC 29213 incubated for 16 to 20 hrs by broth microdilution method; type: functional; settings: time 16-20 hrs
Staphylococcus aureus [2] = experiment: Antibacterial activity against methicillin-resistant Staphylococcus aureus M11 incubated for 16 to 20 hrs by broth microdilution method; type: functional; settings: time 16-20 hrs
Staphylococcus aureus [3] = experiment: Antibacterial activity against methicillin-resistant Staphylococcus aureus M12 incubated for 16 to 20 hrs by broth microdilution method; type: functional; settings: time 16-20 hrs
Staphylococcus aureus [4] = experiment: Antibacterial activity against methicillin-resistant Staphylococcus aureus M13 incubated for 16 to 20 hrs by broth microdilution method; type: functional; settings: time 16-20 hrs
Staphylococcus aureus [5] = experiment: Antibacterial activity against methicillin-resistant Staphylococcus aureus M14 incubated for 16 to 20 hrs by broth microdilution method; type: functional; settings: time 16-20 hrs
Staphylococcus aureus [6] = experiment: Antibacterial activity against methicillin-resistant Staphylococcus aureus M16 incubated for 16 to 20 hrs by broth microdilution method; type: functional; settings: time 16-20 hrs
Staphylococcus aureus [7] = experiment: Antibacterial activity against methicillin-resistant Staphylococcus aureus M17 incubated for 16 to 20 hrs by broth microdilution method; type: functional; settings: time 16-20 hrs
Staphylococcus aureus [8] = experiment: Antibacterial activity against methicillin-resistant Staphylococcus aureus M20 incubated for 16 to 20 hrs by broth microdilution method; type: functional; settings: time 16-20 hrs
Staphylococcus aureus [9] = experiment: Antibacterial activity against methicillin-resistant Staphylococcus aureus M21 incubated for 16 to 20 hrs by broth microdilution method; type: functional; settings: time 16-20 hrs
Staphylococcus aureus [10] = experiment: Antibacterial activity against methicillin-resistant Staphylococcus aureus M22 incubated for 16 to 20 hrs by broth microdilution method; type: functional; settings: time 16-20 hrs
Staphylococcus aureus [11] = experiment: Antibacterial activity against methicillin-resistant Staphylococcus aureus M23 incubated for 16 to 20 hrs by broth microdilution method; type: functional; settings: time 16-20 hrs
Escherichia coli = experiment: Antibacterial activity against Escherichia coli ATCC 25922 incubated for 16 to 20 hrs by broth microdilution method; type: functional; settings: time 16-20 hrs
[12] = Hemolytic activity against sheep erythrocytes; type: toxicity, cell-based, Ovis aries, Erythrocyte

Row | SMILES | MIC (Staphylococcus aureus [1]) [µg/mL] | MIC (Staphylococcus aureus [2]) [µg/mL] | MIC (Staphylococcus aureus [3]) [µg/mL] | MIC (Staphylococcus aureus [4]) [µg/mL] | MIC (Staphylococcus aureus [5]) [µg/mL] | MIC (Staphylococcus aureus [6]) [µg/mL] | MIC (Staphylococcus aureus [7]) [µg/mL] | MIC (Staphylococcus aureus [8]) [µg/mL] | MIC (Staphylococcus aureus [9]) [µg/mL] | MIC (Staphylococcus aureus [10]) [µg/mL] | MIC (Staphylococcus aureus [11]) [µg/mL] | MIC (Escherichia coli) [µg/mL] | HC50 [12] [µg/mL]
1 | CC(C)=CCc1c(OCCCSc2cc[n+](CC(=O)N3CCOCC3)cc2)ccc2ccc(=O)oc12.[Br-] | 128 | 32 | 128 | 128 | 64 | 64 | 64 | 64 | 32 | 32 | 128 | > 128 | > 160
2 | CCCN(CCC)C(=O)C[n+]1ccc(SCCCCOc2ccc3ccc(=O)oc3c2CC=C(C)C)cc1.[Br-] | 2 | 2 | 4 | 8 | 2 | 2 | 2 | 1 | 2 | 2 | 2 | > 128 | > 160
3 | CCCCN(CCCC)C(=O)C[n+]1ccc(SCCCCOc2ccc3ccc(=O)oc3c2CC=C(C)C)cc1.[Br-] | 1 | 1 | 2 | 2 | 1 | 1 | 1 | 0.5 | 0.5 | 0.5 | 0.5 | > 128 | > 160
4 | COc1ccc2ccc(=O)oc2c1CC=C(C)C [OSTHOLE] | > 64 | > 64 | 64 (≈ 262 µM) | > 64 | 64 (≈ 262 µM) | 64 (≈ 262 µM) | 64 (≈ 262 µM) | 64 (≈ 262 µM) | > 64 | 64 (≈ 262 µM) | > 64 | > 64 | > 80
5 | CCCCNC(=O)C[n+]1ccc(SCCCCCOc2ccc3ccc(=O)oc3c2CC=C(C)C)cc1.[Br-] | 2 | 1 | 2 | 2 | 1 | 2 | 2 | 1 | 1 | 1 | 2 | > 128 | > 160
6 | CC(C)=CCc1c(OCCCCCSc2cc[n+](CC(=O)N(C(C)C)C(C)C)cc2)ccc2ccc(=O)oc12.[Br-] | 2 | 1 | 4 | 4 | 2 | 4 | 2 | 2 | 2 | 2 | 2 | > 128 | > 160
7 | CC(C)=CCc1c(OCCCCSc2cc[n+](CC(=O)N(C(C)C)C(C)C)cc2)ccc2ccc(=O)oc12.[Br-] | 2 | 1 | 4 | 4 | 2 | 2 | 2 | 1 | 2 | 2 | 2 | > 128 | > 160
8 | CCCN(CCC)C(=O)C[n+]1ccc(SCCCOc2ccc3ccc(=O)oc3c2CC=C(C)C)cc1.[Br-] | 4 | 4 | 16 | 16 | 8 | 8 | 8 | 4 | 8 | 8 | 8 | 128 | > 160
9 | CCCNC(=O)C[n+]1ccc(SCCCCOc2ccc3ccc(=O)oc3c2CC=C(C)C)cc1.[Br-] | 16 | 4 | 16 | 16 | 8 | 8 | 8 | 8 | 2 | 2 | 8 | > 128 | > 160
10 | CCCCCNC(=O)C[n+]1ccc(SCCCCOc2ccc3ccc(=O)oc3c2CC=C(C)C)cc1.[Br-] | 4 | 2 | 4 | 4 | 1 | 2 | 2 | 1 | 4 | 4 | 1 | > 128 | > 160
11 | CCCNC(=O)C[n+]1ccc(SCCCOc2ccc3ccc(=O)oc3c2CC=C(C)C)cc1.[Br-] | 8 | 8 | 16 | 32 | 8 | 8 | 16 | 8 | 8 | 8 | 8 | > 128 | > 160
